What all share (format): biochemical
The target of assay [1] is T1, R140Q IDH2 (Homo sapiens, UniProt P48735, R140Q).
T1 construct: made in house; host or cells: Sf21 insect cells (cell pellets prepared at Evotec)
T1 sequence (P48735 40-452 R140Q): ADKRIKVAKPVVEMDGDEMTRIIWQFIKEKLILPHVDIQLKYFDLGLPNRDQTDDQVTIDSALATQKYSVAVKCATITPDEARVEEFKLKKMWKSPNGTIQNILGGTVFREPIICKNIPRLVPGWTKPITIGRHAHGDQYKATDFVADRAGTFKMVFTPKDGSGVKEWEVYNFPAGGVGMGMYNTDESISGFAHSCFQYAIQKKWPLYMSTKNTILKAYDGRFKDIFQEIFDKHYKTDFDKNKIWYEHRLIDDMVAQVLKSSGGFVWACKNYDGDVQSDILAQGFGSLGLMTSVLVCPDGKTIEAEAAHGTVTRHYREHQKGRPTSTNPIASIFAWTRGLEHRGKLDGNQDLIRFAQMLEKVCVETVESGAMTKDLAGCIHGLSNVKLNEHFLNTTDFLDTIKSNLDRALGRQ
Put plainly: Absorbance assay, variant activity in the presence of equimolar 2OG (inhibition screen). The note with it: 6.0 mM 2OG and 6.0 mM test compound, 0.03 μM R140Q IDH2, 50 μM NADPH. In short, it runs like this:
(§1)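 Reactions were run as technical quadruplicates. Compounds were dispensed with a simultaneous pipettor, and each assay was started by adding reagent from a bulk dispenser.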

In assay [2] the target is T2, R172K IDH2 (Homo sapiens, UniProt P48735, R172K).
T2 construct: made in house; host or cells: Sf21 insect cells (cell pellets prepared at Evotec)
T2 sequence (P48735 40-452 R172K): T1 sequence (P48735 40-452 R140Q) with Q101R, R133K
Described as above. To be noted: 1.0 mM 2OG and 1.0 mM test compound, 0.03 μM R172K IDH2, 50 μM NADPH. Summed up: as §1

Assay [3] addresses T1, R140Q IDH2. Nature of the assay: Steady-state kinetics, absorbance assay. To be noted: 0.03 μM enzyme, 50 μM NADPH, 20 mM MgCl2, pH 8.0. On the procedure:
Compounds were dispensed using a CyBio SDW-CW CyBi-Well Simultaneous Pipettor and assay started using a ThermoFisher Multidrop Combi reagent dispenser.
Reactions were performed as technical duplicates, and all assays were carried out in two independent duplicates.

The target of assay [4] is T3, WT IDH1 (Homo sapiens, UniProt O75874).
T3 construct: made in house; host or cells: Escherichia coli BL21(DE3) pLyS
Put plainly: Absorbance assay, WT activity in the presence of equimolar DL-isocitrate (inhibition). The note with it: […] isocitrate and […] test compound, 75 μM NADP+, 2.0 nM WT IDH1. In short, it runs like this: as §1

The target of assay [5] is T4, WT IDH2 (Homo sapiens, UniProt P48735).
T4 construct: made in house; host or cells: Sf21 insect cells (cell pellets prepared at Evotec)
T4 sequence (P48735 40-452): T1 sequence (P48735 40-452 R140Q) with Q101R
Described as above. The note with it: […] isocitrate and […] test compound, 75 μM NADP+, 2.0 nM WT IDH2. Summed up:
as §1

Assay [6] has as its target T3, WT IDH1. Put plainly: Absorbance assay, substrate activity in the absence of DL-isocitrate. To be noted: no DL-isocitrate; […] test compound, 75 μM NADP+, 2.0 nM WT IDH1; compared to DL-isocitrate. In short, it runs like this: as §1
In assay [7] the target is T4, WT IDH2. Described as above. To be noted: no DL-isocitrate; […] test compound, 75 μM NADP+, 2.0 nM WT IDH2; compared to DL-isocitrate. Summed up: as §1
Assay [8] has as its target T5, R132H IDH1 (Homo sapiens, UniProt O75874, R132H). Put plainly: Absorbance assay, variant activity in the presence of equimolar 2OG (inhibition screen). The note with it: […] 2OG and […] test compound, 0.03 μM R132H IDH1, 50 μM NADPH. Details: made in house; host or cells: Escherichia coli BL21(DE3) pLyS. Summed up:
as §1

Assay [9] addresses T1, R140Q IDH2. Put plainly: Absorbance assay (NADPH consumption), substrate turnover in the absence of 2OG. The note with it: no 2OG; 6.0 mM test compound, 0.03 μM R140Q IDH2, 50 μM NADPH; 2OG = 100. In short, it runs like this:
as §1

Assay [10] deals with T2, R172K IDH2. The assay is described as above. To be noted: no 2OG; 1.0 mM test compound, 0.03 μM R172K IDH2, 50 μM NADPH; 2OG = 100. In short, it runs like this:
as §1

The target in assay [11] is T5, R132H IDH1. The description is as above. More on the design: made in house; host or cells: Escherichia coli BL21(DE3) pLyS. To be noted: no 2OG; […] test compound, 0.03 μM R132H IDH1, 50 μM NADPH; 2OG = 100. Summed up:
as §1

Substitutions are numbered along the chain they refer to. Structures can show the parent of a compound that is named as a salt.

T5 sequence (O75874 whole entry R132H): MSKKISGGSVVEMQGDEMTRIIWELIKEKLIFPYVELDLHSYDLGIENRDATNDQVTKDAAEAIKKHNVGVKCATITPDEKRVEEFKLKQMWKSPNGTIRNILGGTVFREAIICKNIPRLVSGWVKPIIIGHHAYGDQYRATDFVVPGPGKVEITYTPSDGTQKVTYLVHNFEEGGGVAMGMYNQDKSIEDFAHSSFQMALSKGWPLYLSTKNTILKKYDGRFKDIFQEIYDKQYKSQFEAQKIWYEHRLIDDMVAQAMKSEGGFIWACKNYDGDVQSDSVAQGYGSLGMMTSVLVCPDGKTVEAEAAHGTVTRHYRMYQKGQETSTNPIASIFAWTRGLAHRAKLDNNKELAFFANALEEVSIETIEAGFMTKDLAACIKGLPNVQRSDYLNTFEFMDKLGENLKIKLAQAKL
T3 sequence (O75874 whole entry): as the sequence (O75874 whole entry R132H) above, with H132R counted along it

Consider `CCC(CC(=O)O)C(=O)C(=O)O` (racemic) [compound 2], for which the “activity [%] (%-substrate conversion after 20 min incubation)” value (“activity [%]” below) at R140Q IDH2 [1] is listed as 865 ± 78%; at R172K IDH2 [2] it was 131 ± 16%; on WT IDH1 [4], 98±10%; on WT IDH2 [5], 96±3%; on WT IDH1 [6], less than 10%; at WT IDH2 [7], less than 10%. Further, the “activity [%]” value at R132H IDH1 [8] is on record as 317 ± 12%. The Kmapp at R140Q IDH2 [3] is 3.8 to 7.5 mM.
On to `CCOC(=O)/C=C/C(=O)O` [mono-ethyl fumarate], for which the “activity [%]” value on R140Q IDH2 [9] is less than 10%; at R172K IDH2 [10], less than 10%; at R140Q IDH2 [1], 108 ± 7%; at R172K IDH2 [2], 107 ± 3%; on WT IDH1 [4], 106 ± 4%; on WT IDH2 [5], 96 ± 5%. Moreover, the “activity [%]” value is on record as less than 10% at WT IDH1 [6], less than 10% at WT IDH2 [7], less than 10% on R132H IDH1 [11] and 94 ± 8% at R132H IDH1 [8].
`COC(=O)/C=C/C(=O)O` [mono-methyl fumarate]: the “activity [%]” value on R140Q IDH2 [9] is less than 10%; on R172K IDH2 [10], less than 10%; on R140Q IDH2 [1] it was 98 ± 4%; on R172K IDH2 [2] it was 92 ± 6%; at WT IDH1 [4], 102 ± 2%; on WT IDH2 [5], 98 ± 1%. Also, the “activity [%]” value at WT IDH1 [6] is listed as less than 10%; at WT IDH2 [7] it was less than 10%; at R132H IDH1 [11], less than 10%; at R132H IDH1 [8], 90 ± 4%.
In the case of `O=C(O)CC(=O)C(=O)O` [oxaloacetic acid], the “activity [%]” value at R140Q IDH2 [9] is less than 10%; on R172K IDH2 [10], less than 10%; on R140Q IDH2 [1], 110 ± 3%; on R172K IDH2 [2] it was 96 ± 8%; at WT IDH1 [4], 100 ± 1%; at WT IDH2 [5] it was 98 ± 2%. Also, the “activity [%]” value at WT IDH1 [6] was less than 10%; at WT IDH2 [7], less than 10%; on R132H IDH1 [11], less than 10%; on R132H IDH1 [8] it was 106 ± 2%.
As for `NC(=O)C(=O)O` [oxamic acid], the “activity [%]” value at R140Q IDH2 [9] is recorded as less than 10%; at R172K IDH2 [10], less than 10%; on R140Q IDH2 [1], 117 ± 3%; on R172K IDH2 [2], 102 ± 7%; at WT IDH1 [4], 105 ± 2%; on WT IDH2 [5], 100 ± 1%. For the same molecule, the “activity [%]” value at WT IDH1 [6] is recorded as less than 10%; on WT IDH2 [7], less than 10%; at R132H IDH1 [11], less than 10%; at R132H IDH1 [8], 99 ± 2%.
For the molecule `CC(=O)C(=O)O` [pyruvic acid], the “activity [%]” value on R140Q IDH2 [9] is listed as less than 10%; at R172K IDH2 [10], less than 10%; on R140Q IDH2 [1], 108 ± 4%; at R172K IDH2 [2] it was 114 ± 12%; at WT IDH1 [4], 111 ± 6%; at WT IDH2 [5], 97 ± 5%. For the same molecule, the “activity [%]” value on WT IDH1 [6] is given as less than 10%; at WT IDH2 [7], less than 10%; at R132H IDH1 [11], less than 10%; on R132H IDH1 [8] it was 112 ± 8%.
Consider `O=C(O)CCC(=O)O` [succinic acid], for which the “activity [%]” value at R140Q IDH2 [9] is less than 10%; on R172K IDH2 [10], less than 10%; on R140Q IDH2 [1], 124 ± 11%; at R172K IDH2 [2], 89 ± 2%; on WT IDH1 [4], 97 ± 2%; at WT IDH2 [5], 97 ± 3%. Further, the “activity [%]” value is on record as less than 10% on WT IDH1 [6], less than 10% on WT IDH2 [7], less than 10% on R132H IDH1 [11] and 100 ± 4% at R132H IDH1 [8].
Regarding succinyl CoA, the “activity [%]” value at R140Q IDH2 [9] is listed as less than 10%; at R172K IDH2 [10] it was less than 10%; on R140Q IDH2 [1] it was 117 ± 2%; on R172K IDH2 [2], 91 ± 6%; at WT IDH1 [4], 100 ± 1%; on WT IDH2 [5], 99 ± 1%. Moreover, the “activity [%]” value at WT IDH1 [6] was less than 10%; at WT IDH2 [7] it was less than 10%; at R132H IDH1 [11], less than 10%; on R132H IDH1 [8], 73 ± 1%.

For the origin of these results see PMC9939733 (The Journal of Biological Chemistry, 2023).
